Test results from US20140073700A1, “[…] ACID DERIVATIVES AND METHODS OF USE THEREOF” (AbbVie Inc., priority 2012, published 2014).
pIC50: −log10 of the molar value.

The compounds below were run on IFNγ-Induced NO Production in RAW 264.7 cells (assay: Nitric Oxide Suppression Assay (suppression of IFNγ-induced NO production)). Settings: RAW264.7; RAW 264.7 mouse macrophage cells, 20 ng/mL interferon gamma, Griess detection; single curve fit to mean data of n=2-3.
Assay type: cell-based
Experimental: RAW 264.7, a mouse macrophage cell line, was obtained from American Type Culture Collection (Manassas Va.) and maintained in the log phase of growth in Dulbecco's Modified Eagle's Medium (DMEM), 10% heat inactivated fetal calf serum and 100 units/mL antibiotic-antimycotic (AA). Cells were cultured and maintained in a humidified incubator at 37° C. under 5% CO2 and 95% air. Cells were sub-cultured every 3 days by scraping and were not used beyond passage 20. All cell culture supplies were obtained from Life Technologies (Grand Island, N.Y.).
RAW 264.7 cells were plated 1 day in advance of experiment at a concentration of 80,000 cells/well onto CellBIND® 96 well plates (Corning, N.Y.) in a total volume of 100 μL. The next day, pre-treat cells with compounds (from 3 μM to 0.3 nM serially diluted in a 10 point curve) from a 10× stock by adding 10 μL per well in complete DMEM media containing 10% fetal calf serum. The plates were centrifuged for 3 minutes at 400×g at room temperature followed by 2 hour incubation at 37° C. The cells were then incubated overnight at 37° C. with 10 μL of the insult, interferon gamma (R&D Systems, Minneapolis, Minn.), from a 10× stock for a final concentration of 20 ng/mL. The plates were centrifuged for 3 minutes at 400×g at room temperature followed by 18 hour incubation at 37° C. The following day, transfer 50 μL cell culture supernatant from each well into a clear bottom 96 well plate and follow the instructions from Promega's Griess Detection Kit #G2930 (Madison, Wis.) which involves the addition of 50 μL of the provided sulfanilamide solution for a 5-10 minute incubation at room temperature. Next add 50 μL of the provided N-1-napthylethylenediamine dihydrochloride (NED) solution for a 5-10 minute incubation at room temperature and protected from light. If any air bubbles were introduced into the well, the plates need to be centrifuged for 5 minutes at 400×g at room temperature to avoid interference with absorbance readings. The plates were read for absorbance within 30 minutes with a filter between 520 nm and 550 nm.
For the ability of compounds to suppress the increase in nitric oxide release, the percent maximal intensity of nitric oxide detected in each well was normalized to that induced by the peak value for 20 ng/mL of interferon gamma alone and plotted against the compound concentration to calculate IC50 values and to control for plate-to-plate variability. Concentration-response data were analyzed using GraphPad Prism (San Diego, Calif.); the IC50 values were derived from a single curve fit to the mean data of n=2-3, in duplicates.
All compounds were dissolved in dimethyl sulfoxide at 10 mM stock solutions and tested at a concentration that the dimethyl sulfoxide levels never exceeded 1%.
`CC(C)CCNC(=O)[C@@]1(C)CC[C@]2(C)CC[C@@]3(C)[C@]4(C)CC[C@H]5C(C)(C)C(=O)C(C#N)=C[C@]5(C)C4=CC(=O)[C@]3(O)[C@@H]2C1` [Example 17, (2S,4aS,6aS,6bR,8aR,12aS,14aS,14bR)-11-cyano-14a-hydroxy-2,4a,6a,6b,9,9,12a-heptamethyl-N-(3-methylbutyl)-10,14-dioxo-1,2,3,4,4a,5,6,6a,6b,7,8,8a,9,10,12a,14,14a,14b-octadecahydropicene-2-carboxamide] gave a pIC50 of 7.62.
`COc1ccccc1CNC(=O)[C@@]1(C)CC[C@]2(C)CC[C@@]3(C)[C@]4(C)CC[C@H]5C(C)(C)C(=O)C(C#N)=C[C@]5(C)C4=CC(=O)[C@]3(O)[C@@H]2C1` [Example 13, (2S,4aS,6aS,6bR,8aR,12aS,14aS,14bR)-11-cyano-14a-hydroxy-N-(2-methoxybenzyl)-2,4a,6a,6b,9,9,12a-heptamethyl-10,14-dioxo-1,2,3,4,4a,5,6,6a,6b,7,8,8a,9,10,12a,14,14a,14b-octadecahydropicene-2-carboxamide] showed a pIC50 of 7.22.
With `CC1(C)C(=O)C(C#N)=C[C@]2(C)C3=CC(=O)[C@@H]4[C@@H]5C[C@@](C)(C(=O)NCc6cnco6)CC[C@]5(C)CC[C@@]4(C)[C@]3(C)CC[C@@H]12` [Example 39, (2S,4aS,6aR,6bS,8aR,12aS,14aR,14bS)-11-cyano-2,4a,6a,6b,9,9,12a-heptamethyl-N-(1,3-oxazol-5-ylmethyl)-10,14-dioxo-1,2,3,4,4a,5,6,6a,6b,7,8,8a,9,10,12a,14,14a,14b-octadecahydropicene-2-carboxamide] the pIC50 was 8.24.
For `COCCN(C)C(=O)[C@@]1(C)CC[C@]2(C)CC[C@@]3(C)[C@]4(C)CC[C@H]5C(C)(C)C(=O)C(C#N)=C[C@]5(C)C4=CC(=O)[C@]3(O)[C@@H]2C1` [Example 28, (2S,4aS,6aS,6bR,8aR,12aS,14aS,14bR)-11-cyano-14a-hydroxy-N-(2-methoxyethyl)-N,2,4a,6a,6b,9,9,12a-octamethyl-10,14-dioxo-1,2,3,4,4a,5,6,6a,6b,7,8,8a,9,10,12a,14,14a,14b-octadecahydropicene-2-carboxamide], the pIC50 was 7.76.
With `COc1ccc(NC(=O)[C@@]2(C)CC[C@]3(C)CC[C@@]4(C)[C@]5(C)CC[C@H]6C(C)(C)C(=O)C(C#N)=C[C@]6(C)C5=CC(=O)[C@]4(O)[C@@H]3C2)cc1` [Example 27, (2S,4aS,6aS,6bR,8aR,12aS,14aS,14bR)-11-cyano-14a-hydroxy-N-(4-methoxyphenyl)-2,4a,6a,6b,9,9,12a-heptamethyl-10,14-dioxo-1,2,3,4,4a,5,6,6a,6b,7,8,8a,9,10,12a,14,14a,14b-octadecahydropicene-2-carboxamide] the pIC50 was 7.87.
`Cn1cc(CNC(=O)[C@@]2(C)CC[C@]3(C)CC[C@]4(C)[C@H](C(=O)C=C5[C@@]6(C)C=C(C#N)C(=O)C(C)(C)[C@@H]6CC[C@]54C)[C@@H]3C2)cn1` [Example 38, (2S,4aS,6aR,6bS,8aR,12aS,14aR,14bS)-11-cyano-2,4a,6a,6b,9,9,12a-heptamethyl-N-[(1-methyl-1H-pyrazol-4-yl)methyl]-10,14-dioxo-1,2,3,4,4a,5,6,6a,6b,7,8,8a,9,10,12a,14,14a,14b-octadecahydropicene-2-carboxamide] gave a pIC50 of 8.17.
With `CCC(O)CNC(=O)[C@@]1(C)CC[C@]2(C)CC[C@@]3(C)[C@]4(C)CC[C@H]5C(C)(C)C(=O)C(C#N)=C[C@]5(C)C4=CC(=O)[C@]3(O)[C@@H]2C1` (stereo partly drawn) [Example 14, (2S,4aS,6aS,6bR,8aR,12aS,14aS,14bR)-11-cyano-14a-hydroxy-N-(2-hydroxybutyl)-2,4a,6a,6b,9,9,12a-heptamethyl-10,14-dioxo-1,2,3,4,4a,5,6,6a,6b,7,8,8a,9,10,12a,14,14a,14b-octadecahydropicene-2-carboxamide] the pIC50 was 7.27.
In the case of `CC1(C)C(=O)C(C#N)=C[C@]2(C)C3=CC(=O)[C@]4(O)[C@@H]5C[C@@](C)(C(=O)NCc6ccnnc6)CC[C@]5(C)CC[C@@]4(C)[C@]3(C)CC[C@@H]12` [Example 5, (2S,4aS,6aS,6bR,8aR,12aS,14aS,14bR)-11-cyano-14a-hydroxy-2,4a,6a,6b,9,9,12a-heptamethyl-10,14-dioxo-N-(pyridazin-4-ylmethyl)-1,2,3,4,4a,5,6,6a,6b,7,8,8a,9,10,12a,14,14a,14b-octadecahydropicene-2-carboxamide], the pIC50 was 7.30.
Work on `CC1(C)C(=O)C(C#N)=C[C@]2(C)C3=CC(=O)[C@]4(O)[C@@H]5C[C@@](C)(C(=O)NCc6ccccc6)CC[C@]5(C)CC[C@@]4(C)[C@]3(C)CC[C@@H]12` [Example 22, (2S,4aS,6aS,6bR,8aR,12aS,14aS,14bR)—N-benzyl-11-cyano-14a-hydroxy-2,4a,6a,6b,9,9,12a-heptamethyl-10,14-dioxo-1,2,3,4,4a,5,6,6a,6b,7,8,8a,9,10,12a,14,14a,14b-octadecahydropicene-2-carboxamide] yielded a pIC50 of 7.57.
